Reference: patent EP1290011B1 (Oncopeptides AB, priority 2000, dated 2001)
pIC50: −log10 of the molar value.

Columns and labels:
CEM/S = assay: cells; type: cell-based, human; conditions: CEM/S; 72 hours incubation; read-out: IC50
CEM/R = assay: cells; type: cell-based, human; conditions: CEM/R; 72 hours incubation; read-out: IC50
ACHN = assay: cells; type: cell-based, human; conditions: ACHN, primary resistant renal carcinoma; 72 hours incubation; read-out: IC50
H69 = assay: cells; type: cell-based, human; conditions: H69, small cell lung cancer; 72 hours incubation; read-out: IC50
H69AR = assay: cells; type: cell-based, human; conditions: H69AR, doxorubicin resistance; 72 hours incubation; read-out: IC50
8226S = assay: cells; type: cell-based, human; conditions: 8226S, myeloma; 72 hours incubation; read-out: IC50
8226Dox40 = assay: cells; type: cell-based, human; conditions: 8226Dox40, doxorubicin resistance; 72 hours incubation; read-out: IC50
8226LR5 = assay: cells; type: cell-based, human; conditions: 8226LR5, melphalan resistance; 72 hours incubation; read-out: IC50
U937gtb = assay: cells; type: cell-based, human; conditions: U937gtb, lymphoma; 72 hours incubation; read-out: IC50
U937vcr = assay: cells; type: cell-based, human; conditions: U937vcr, vincristine resistance; 72 hours incubation; read-out: IC50
[1] = system: panel of ten human tumour cell lines; assay: cells; type: cell-based; conditions: mean over the ten cell lines; read-out: MEAN IC50
Ovarian carcinoma = assay: Cytotoxic activity in different tumour models; type: cell-based, human; conditions: Number 8
Breast cancer = assay: Cytotoxic activity in different tumour models; type: cell-based, human; conditions: Number 4
NSC Lung cancer = assay: Cytotoxic activity in different tumour models; type: cell-based, human; conditions: Number 8
Prostate cancer = assay: Cytotoxic activity in different tumour models; type: cell-based, human; conditions: Number 1
Corpus cancer = assay: Cytotoxic activity in different tumour models; type: cell-based, human; conditions: Number 4
Adeno-carcinoma = assay: Cytotoxic activity in different tumour models; type: cell-based, human; conditions: Number 5
[2] = system: PHTC samples from 9 patients with hematological and 18 patients with solid tumours; assay: Circumvention of melphalan resistance: FMCA classification of PHTC samples as LDR, IDR, EDR; type: cell-based, human; conditions: tested at 4 µM; for Number of samples EDR / Number of samples (%) EDR: Extreme drug resistance; for Number of samples (%) EDR / Number of samples (%) IDR / Number of samples (%) LDR: percent of samples; for Number of samples IDR / Number of samples (%) IDR: Intermediate drug resistance; for Number of samples LDR / Number of samples (%) LDR: Low drug resistance
Solid tumours (PHTC) = assay: FMCA in PHTC cultures, Table 4, solid; conditions: 4 µM; n=12-20; 4320 min
[3] = system: primary cultures of human tumor cells from patients (PHTC), Total; assay: FMCA in PHTC cultures, Table 4, total; conditions: 4 µM; n=19-31; 4320 min
[4] = system: Hematological tumours (PHTC); assay: FMCA in PHTC cultures, Table 4, hematological; conditions: 4 µM; n=7-11; 4320 min
RPMI 8226S = assay: FMCA comparing J1 and AcJ1; type: cell-based; conditions: RPMI 8226S cell line
Protocol: (§1) The fluorometric microculture cytotoxicity assay (FMCA) (Larsson, R., et al- 1992: Int J Cancer, 50, 177-185) was used to evaluate the compounds. Briefly, 96-well microtiter plates (NUNC, Roskilde, Denmark) are prepared with 20 µl drug solution at ten times the desired concentration and stored for up to two months at -70°C. In general the substances are first dissolved in absolute or acidic ethanol to concentrations of 4.0 to 8.2 mM and further diluted with sterile water or sterile phosphate buffered saline (PBS, Sigma chemicals). All dilutions with water are made directly before the experiments to minimise the influence of mustard hydrolysis. […] At day zero of the experiment 180 µl of cell suspension of adequate concentration is added to the wells of the thawed plate, six wells serve as controls (cell suspension only) and six wells as blanks (cell medium only). After 72 hours incubation the cells are washed once with PBS, and 100 µl of fluorescein diacetate (10 µg/ml) in a physiological buffer is added. After another 45 min the generated fluorescence (ex 485 nm; em 528 nm) is measured in a 96-well scanning fluorometer (Fluoroscan II, Labsystems Oy, Helsinki, Finland). […]

U-937 = assay: FMCA comparing J1 and AcJ1; type: cell-based; conditions: U-937 cell line
Protocol: as §1

[5] = system: fresh human tumour specimens; assay: FMCA cytotoxic activity in 27 fresh human tumour specimens (Figure 2); type: cell-based; conditions: 27 human tumour samples, 14 hematological and 13 solid, comparative statement
NCI-H23 = assay: cells; type: cell-based; conditions: NCI-H23, non-small cell lung cancer; read-out: IC50
U-1752 = assay: cells; type: cell-based; conditions: U-1752, non-small cell lung cancer; read-out: IC50
NCI-H611 = assay: cells; type: cell-based; conditions: NCI-H611, non-small cell lung cancer; read-out: IC50
NCI-H157 = assay: cells; type: cell-based; conditions: NCI-H157, non-small cell lung cancer; read-out: IC50
U-1810 = assay: cells; type: cell-based; conditions: U-1810, non-small cell lung cancer; read-out: IC50
NCI-H125 = assay: cells; type: cell-based; conditions: NCI-H125, non-small cell lung cancer; read-out: IC50
U-1568 = assay: cells; type: cell-based; conditions: U-1568, non-small cell lung cancer; read-out: IC50
U1906L = assay: cells; type: cell-based; conditions: U1906L, small cell lung cancer; read-out: IC50
U1285 = assay: cells; type: cell-based; conditions: U1285, small cell lung cancer; read-out: IC50
U-1906E = assay: cells; type: cell-based; conditions: U-1906E, small cell lung cancer; read-out: IC50
U1690 = assay: cells; type: cell-based; conditions: U1690, small cell lung cancer; read-out: IC50
[6] = system: hematological fresh human tumour specimens (PHTC); conditions: 0.66 µM; n=42; 4320 min
[7] = system: solid tumour fresh human tumour specimens (PHTC); conditions: 0.66 µM; n=22; 4320 min

SMILES	pIC50 (CEM/S)	pIC50 (CEM/R)	pIC50 (ACHN)	pIC50 (H69)	pIC50 (H69AR)	pIC50 (8226S)	pIC50 (8226Dox40)	pIC50 (8226LR5)	pIC50 (U937gtb)	pIC50 (U937vcr)	pIC50 [1]	Median response at 4.0 µM >50% reduction in tumour cell survival (Ovarian carcinoma)	Median response at 4.0 µM >50% reduction in tumour cell survival (Breast cancer)	Median response at 4.0 µM >50% reduction in tumour cell survival (NSC Lung cancer)	Median response at 4.0 µM >50% reduction in tumour cell survival (Adeno-carcinoma)	Number of samples EDR [2]	Number of samples (%) EDR [2]	Number of samples IDR [2]	Number of samples (%) IDR [2] [%]	Number of samples LDR [2]	also measured
CCOC(=O)[C@H](Cc1ccc(F)cc1)NC(=O)[C@H](Cc1ccc(N(CCCl)CCCl)cc1)NC(=O)[C@@H]1CCCN1.Cl [Example J3, L-Prolinyl-L-melphalanyl-L-p-fluorophenylalanine ethyl ester hydrochloride]	7.22	7.70	5.76	6.70	5.87	5.82	5.25	5.45	6.64	6.38	5.83	Yes	Yes	Yes	Yes	0 (0%)	0 (0%)	4	15	23	Median response at 4.0 µM >50% reduction in tumour cell survival (Prostate cancer): Yes; Median response at 4.0 µM >50% reduction in tumour cell survival (Corpus cancer): Yes; Number of samples (%) LDR [2]: 85%; Tumour cell survival index (%) Solid tumours (Solid tumours (PHTC)): 36.3%; Tumour cell survival index (%) Total [3]: 25.9%; Tumour cell survival index (%) Hematological tumours [4]: 7%
CCOC(=O)[C@H](Cc1ccc(F)cc1)NC(=O)[C@H](Cc1ccc(N(CCCl)CCCl)cc1)NC(C)=O [AcJ1, N-Acetyl-L-melphalanyl-L-p-fluorophenylalanine ethyl ester]	–	–	–	–	–	–	–	–	–	–	–	–	–	–	–	–	–	–	–	–	pIC50 (RPMI 8226S): 5.54; pIC50 (U-937): 6.21
CCOC(=O)[C@H](Cc1ccc(F)cc1)NC(=O)[C@@H](N)Cc1ccc(N(CCCl)CCCl)cc1.Cl [Example J1, L-Melphalanyl-L-p-fluorophenylalanine ethyl ester hydrochloride]	7.52	8.00	6.40	7.40	> 5.05	6.09	5.75	5.61	7.15	6.96	6.18	Yes	Yes	Yes	Yes	1	6%	3	18	13	IC50s (comparison) [5]: in all cases was more active than P2; pIC50 (NCI-H23): 5.12; pIC50 (U-1752): 5.89; pIC50 (NCI-H611): 5.50; pIC50 (NCI-H157): 5.41; pIC50 (U-1810): 8.00; pIC50 (NCI-H125): 5.01; pIC50 (U-1568): 5.79; pIC50 (U1906L): 6.66; pIC50 (U1285): 7.40; pIC50 (U-1906E): 5.93; pIC50 (U1690): 5.86; Median response at 4.0 µM >50% reduction in tumour cell survival (Corpus cancer): No; Number of samples (%) LDR [2]: 76%; Tumour cell survival index % Hematological [6]: 13.7%; Tumour cell survival index % Solid [7]: 46.9%; Tumour cell survival index (%) Solid tumours (Solid tumours (PHTC)): 56.5%; Tumour cell survival index (%) Total [3]: 40.9%; Tumour cell survival index (%) Hematological tumours [4]: 6.6%
CC(C)OC(=O)[C@H](Cc1ccc(F)cc1)NC(=O)[C@@H](N)Cc1ccc(N(CCCl)CCCl)cc1.Cl [JV28, L-Melphalanyl-L-p-fluorophenylalanine isopropyl ester hydrochloride]	7.22	7.40	7.30	7.30	6.43	6.29	6.05	5.73	7.00	6.82	6.39	Yes	Yes	Yes	Yes	1	6%	2	12	14	Median response at 4.0 µM >50% reduction in tumour cell survival (Prostate cancer): Yes; Number of samples (%) LDR [2]: 82%; Tumour cell survival index (%) Solid tumours (Solid tumours (PHTC)): 44.2%; Tumour cell survival index (%) Total [3]: 30.4%; Tumour cell survival index (%) Hematological tumours [4]: 6.7%
